The results in this text go back to publication PMC11434840, “Discovery of Benzopyrone-Based Candidates as Potential Antimicrobial and Photochemotherapeutic Agents through Inhibition of DNA Gyrase Enzyme B: Design, Synthesis, In Vitro and In Silico Evaluation” (Pharmaceuticals, 2024).

Like-named read-outs stand apart in the source and are kept apart here.

Series [1] deals with Bacillus subtilis ATCC 14579. As to the kind of experiment: Antimicrobial agar cup-plate assay, B. subtilis. Type of series: cell-based. The note with it: 0.1 mL of compound in DMF, overnight incubation, mean ± SD, at least three experiments. Here is the method: (§1) The antimicrobial activity of all newly synthesized compounds was determined using the agar cup-plate method using the Hi-Media agar medium. Xanthotoxin, tobramycin, and amphotericin B were used as reference drugs. All newly synthesized compounds were tested against two strains of Gram-positive bacteria (Bacillus subtilis ATCC 14579 and Staphylococcus aureus ATCC 25923), Gram-negative bacteria (Escherichia coli ATCC 25922), and yeast (Candida albicans ATCC 10231).
(§2) The nutrient agar medium consists of 0.3% of beef extract, 0.5% of peptone, 0.1% dipotassium hydrogen phosphate, and 1.5% agar. Broth cultures of the organisms were prepared by incubating slant agar seeded with the organisms overnight.
(§3) The prepared broth culture (0.02 mL) was carefully added to sterile Petri dishes. Then, 10 mL of the liquefied nutrient agar medium was poured into each dish, mixed uniformly, and allowed to solidify. Using a sterilized cork borer, cups (9 mm) were scooped out of the agar media contained in the Petri dishes. Each test compound (50 mg) was dissolved in 1 mL DMF (50 mg mL^−1), which was used as a stock solution to carry out the twofold dilution technique. A fixed volume (0.1 mL) of the tested compounds dissolved in dimethylformamide (DMF) was added. Each plate contained a cup filled with DMF to disregard the effect of solvent. Additionally, two other cups were filled with tobramycin and xanthotoxin being used as reference drugs. The plates were incubated overnight to examine the antimicrobial activity. Zones of inhibition obtained by each test compound were measured in millimeters and the results are recorded in Table 2.
(§4) GraphPad Prism-version 5 (GraphPad Software, Inc., La Jolla, CA, USA) was used for statistical analysis.

The test system of series [2] is Staphylococcus aureus ATCC 25923. The experiment in a line: Antimicrobial agar cup-plate assay, S. aureus. Type of series: cell-based. The note with it: 0.1 mL of compound in DMF, overnight incubation, mean ± SD, at least three experiments. As to the method: as §1, §2, §3, §4
The subject of series [3] is Escherichia coli ATCC 25922. As to the kind of experiment: Antimicrobial agar cup-plate assay, E. coli. Type of series: cell-based. The settings on record: 0.1 mL of compound in DMF, overnight incubation, mean ± SD, at least three experiments. Here is the method: as §1, §2, §3, §4
The test system of series [4] is Candida albicans ATCC 10231. As to the kind of experiment: Antimicrobial agar cup-plate assay, C. albicans. Type of series: cell-based. More on the design: key to Inhibition Zone (mm) C. albicans: -: no activity. The settings on record: 0.1 mL of compound in DMF, overnight incubation, mean ± SD, at least three experiments. Here is the method: as §1, §2, §3, §4
Series [5] concerns Bacillus subtilis ATCC 14579. The experiment in a line: Photosensitizing assay (MIC before and after UV irradiation, agar cup-plate). Type of series: cell-based. The settings on record: Bacillus subtilis, ATCC14579, light or radiation study, B. subtilis. As to the method:
The photosensitizing activity was determined using the agar cup-plate method (described in Section 2.3) with Hi-Media agar medium. The antibacterial activity against Bacillus subtilis ATCC 14579 was measured before and after exposure to UV lamp (365 nm). The diameters of the inhibition zones were measured in mm and the results were compared with xanthotoxin. The tested organism used was Bacillus subtilis.
For the photosensitizing activity, xanthotoxin was used as a reference drug and DMF as a negative control. The minimum inhibitory concentrations (MIC) were determined using the agar cup-plate method. Each test compound (50 mg) was dissolved in 1 mL DMF (50 mg mL^−1), which was used as a stock solution to carry out the twofold dilution technique. The sample size for all the compounds was adjusted to 0.1 mL. The solution of the test compound (0.1 mL) was added to the cups. The plates were divided into test plates and duplicate plates. Before irradiation, the test plates were incubated in the dark at 37 °C for 3 h to permit the diffusion of the tested compounds through the agar layer. The duplicate plates were incubated overnight and used as a control for the determination of the antibacterial activity. The covers were removed from the test plates, and the dishes were exposed to UV lamp (365 nm) for 20 min. After irradiation, the plates were left overnight in the dark at 37 °C. MIC, the least concentration preventing visible bacterial growth, was determined in both the control and test, indicating the antibacterial and photosensitizing activity of the tested compounds, respectively.
To evaluate the significance of the difference in the results, each experiment was repeated at least three times. […] GraphPad Prism-version 5 (GraphPad Software, Inc., La Jolla, CA, USA) was used to perform statistical analysis of the results.

For a further series, the target named is T1, E. coli DNA gyrase (Escherichia coli, UniProt P0AES6).
T1 construct: purchased John Innes Enterprises Ltd
As to the kind of experiment: In vitro DNA gyrase supercoiling inhibitory assay. It is filed as biochemical. The note with it: mean ± SD of three separate experiments.

The mark [6] stands for this setting: 20 min, after irradiation with UV lamp (365 nm) for 20 min (photosensitizing activity), 100 μL per cup, read-out: MIC (mg mL^−1) Test.
Setting [7] is: 20 min, after irradiation with UV lamp (365 nm) for 20 min (photosensitizing activity), read-out: MIC (mM) Test.
Setting [8] is: without irradiation (antibacterial activity), 100 μL per cup, read-out: MIC (mg mL^−1) Control.
[9] abbreviates: without irradiation (antibacterial activity), read-out: MIC (mM) Control.
Setting [10] is: IC50 (μM) DNA gyrase supercoiling.
[11] abbreviates: IC50 (μg mL^−1) DNA gyrase supercoiling.

Experimental for E. coli DNA gyrase: The supercoiling assay, based on DNA triplex, formation [43] was performed on the black streptavidin-coated 96-well microtiter plates (Thermo Scientific Pierce). Serial dilutions of the tested compounds and standard drugs were prepared, starting from 5.0 U/mL (5.0, 2.5, 1.25, 0.625, 0.312, 0.156, and 0.078 U/mL). The plates were first rehydrated with the supplied wash buffer [20 mM Tris-HCl (pH 7.6), 137 mM NaCl 0.01% (w/v), BSA 0.05% (v/v) Tween 20] and oligonucleotide was immobilized onto the wells. The excess oligonucleotide was then washed off, and the enzyme assay was carried out in the wells.
The final reaction volume of 30 μL in buffer [35 mM Tris × HCl (pH 7.5), 24 mM KCl, 4 mM MgCl2, 2 mM DTT (dithiothreitol), 1.8 mM spermidine, 1 mM ATP, 6.5% (w/v) glycerol, 0.1 mg/mL albumin] contained 1.5 U of gyrase from E. coli, 0.75 μg of relaxed pNO1 plasmid, and 3 μL of inhibitor solution in 10% DMSO and 0.008% Tween 20. Reactions were incubated for 30 min at 37 °C and after the addition of the TF buffer [50 mM NaOAc (pH 5.0), 50 mM NaCl, and 50 mM MgCl2], which terminated the enzymatic reaction for another 30 min at rt to allow the triplex formation. The unbound plasmid was then washed off using TF buffer, and a solution of SybrGOLD stain in T10 buffer [10 mM Tris × HCl (pH 8.0) and 1 mM EDTA] was added. After mixing, the fluorescence (excitation: 495 nm, emission: 537 nm) was measured using BioTek Synergy HT microplate reader. […] GraphPad Prism-version 5 (GraphPad Software, Inc., La Jolla, CA, USA) was used to determine the IC50 values of both the tested compounds and standard drugs across the different concentrations.

Broadly, the MIC is the smallest concentration in the dilution series that meets the test's criterion for growth inhibition. What is called IC50 is the point on the concentration scale where inhibition reaches its midpoint. The term melting point denotes the temperature, or range, at which the solid turns liquid. On to `CCc1cc2c(C)cc(=O)oc2c2c(-c3ccccc3)coc12` [Compound 8a, 9-Ethyl-7-methyl-3-phenyl-5H-furo[2,3-h]benzopyran-5-one], for which the melting point was in the range of 103 to 105 °C. Besides, in series [1], the “Inhibition Zone (mm) B. subtilis” value turned out to be 20 ± 1.414 mm. Further, in series [2], the “Inhibition Zone (mm) S. aureus” value is on record as 25 ± 1.414 mm. Also, the “Inhibition Zone (mm) E. coli” value in series [3] is 30 ± 1.414 mm. Besides, the “Inhibition Zone (mm) C. albicans” value in series [4] is “-”. Further, in series [5] (setting [6]), the MIC was found to be 97 µg/mL. Also, the MIC in series [5] (setting [7]) was 0.32 mM. Further, the minimal inhibitory concentration (MIC) in series [5] (setting [8]) was 310 µg/mL. Further, the MIC in series [5] (setting [9]) turned out to be 1.02 mM. In addition, the midpoint of inhibition against E. coli DNA gyrase (setting [10]), the IC50, lay at 7.89 ± 0.117 µM. Also, the IC50 at E. coli DNA gyrase (setting [11]) is 7.89 µM.

`CCc1cc2c(C)cc(=O)oc2c2c(-c3ccc(C)cc3)coc12` [Compound 8b, 9-Ethyl-7-methyl-3-(4-methylphenyl)-5H-furo[2,3-h]benzopyran-5-one] gave a melting point of 149 to 151 °C. Also, the “Inhibition Zone (mm) B. subtilis” value in series [1] worked out at 10 ± 1.414 mm. Also, in series [2], the “Inhibition Zone (mm) S. aureus” value is recorded as 30 ± 1.414 mm. Moreover, the “Inhibition Zone (mm) E. coli” value in series [3] is on record as 30 ± 1.414 mm. For the same compound, the “Inhibition Zone (mm) C. albicans” value in series [4] was “-”. Moreover, the MIC in series [5] (setting [6]) is 97 µg/mL. Further, in series [5] (setting [7]), the MIC turned out to be 0.3 mM. Also, the minimal inhibitory concentration (MIC) in series [5] (setting [8]) is 780 µg/mL. For the same compound, the minimum inhibitory concentration (MIC) in series [5] (setting [9]) is 2.45 mM. At E. coli DNA gyrase (setting [10]), this compound yielded a concentration for half-maximal inhibition (IC50) of 38.6 ± 0.513 µM. At E. coli DNA gyrase (setting [11]), the 50% inhibitory concentration (IC50) was 38.6 µM.

On to `CCc1cc2c(-c3ccccc3)cc(=O)oc2c2c(-c3ccccc3)coc12` [Compound 8d, 3,7-Diphenyl-9-ethyl-5H-furo[2,3-h]benzopyran-5-one], for which the melting point was in the range of 178 to 180 °C. Also, the “Inhibition Zone (mm) B. subtilis” value in series [1] came to 12 ± 0.8165 mm. Further, the “Inhibition Zone (mm) S. aureus” value in series [2] came out at 23 ± 1.414 mm. Also, the “Inhibition Zone (mm) E. coli” value in series [3] came to 30 ± 0.8165 mm. Besides, in series [4], the “Inhibition Zone (mm) C. albicans” value is reported as “-”. Also, in series [5] (setting [6]), the MIC was 97 µg/mL. Besides, the MIC in series [5] (setting [7]) was 0.26 mM. In series [5] (setting [8]), the MIC came to 780 µg/mL. Moreover, in series [5] (setting [9]), the minimal inhibitory concentration (MIC) was 2.13 mM. This compound registered a half-maximal inhibitory concentration (IC50) against E. coli DNA gyrase (setting [10]) of 0.76 ± 0.0223 µM. At E. coli DNA gyrase (setting [11]), this compound had a concentration for half-maximal inhibition (IC50) of 0.764 µM.
